The values below come from patent US20240018157A1, “CYCLIC COMPOUNDS AND METHODS OF USING SAME” (Schrödinger, Inc., priority 2019, published 2024).

Test [1] concerns the target full-length MALT1 protein His-MALT1(1-824) (Homo sapiens (Human), UniProt Q9UDY8). Put plainly: MALT1 protease assay, Assay 2 (1 nM MALT1, Ac-LRSR-AMC substrate). The test is classed as biochemical. The conditions noted are these: 1 nM MALT1, 50 μM Ac-LRSR-AMC, 2 h pre-incubation, 8 hr incubation at RT. How it is done:
MALT1 protease activity was assessed in an in vitro assay using a tetrapeptide as substrate and full-length MALT1 protein His-MALT1(1-824) purified from baculovirus-infected insect cells.
The final assay buffer includes 1 nM (Assay 2) or 2 nM (Assay 1) of MALT1 full-length protein, 50 μM Ac-LRSR-AMC substrate, 50 mM Tris pH 7.5, 600 mM Sodium Citrate, 1 mM DTT, 1 mM EDTA, and 0.05% BSA in 384-well plate format using black microtiter square well plates (Optiplate 384-F, Perkin Elmer).
Test compounds were dissolved in 100% DMSO at stock of 10 mM, with final DMSO concentration 0.1%. Test compounds were pre-incubated with MALT1 protein for 2 h at room temperature. Substrate was added after the pre-incubation and fluorescence signal was measured using Envision at excitation 355 nm and emission 460 nm after 8 hr incubation at RT.
The fluorescence units were transformed to percentage of remaining activity by using the high control (HC, median of fluorescence signal from wells containing MALT1 protein, substrate, and DMSO) and low control (LC, median of fluorescence signal from wells with substrate only) with the formula below: […]
IC50 and Hill coefficient were obtained using Graph Pad Prism (Graph Pad software, Inc, USA) with non-linear regression analysis.

The subject of test [2] is IL10 secretion, OCI-LY10 cells. Description: Human IL10 secretion assay, Assay 1 (HTRF). The test is classed as cell-based. The following applies: 24 h incubation, read-out: IL-10 Secretion IC50 [nM] Assay 1. How it is done:
(§1) IL10 is one of the cytokines that are regulated via activation of NF-kB signaling. For example, in ABC-DLBCL cell lines, the activated NF-kB signaling leads to increased IL10 secretion. Inhibition of NF-kB signaling has been shown leading to decreased IL10 secretion.
Assay 1: OCI-LY10 cells were seeded in IMEM supplemented with 20% fetal bovine serum at 3×10^5 cells per well in 96-well round bottom plates (Corning 3799, Corning), treated with 100 nL of 3-fold serial compound dilutions, starting at 10 mM. The final vehicle concentration was 0.1% DMSO in all wells. After 24 h incubation, the cells were transferred to 96-PCR plates (Axygen: PCR-96-FLT-C) and centrifuged, then 16 μL of cell culture media was transferred to HTRF plates and IL10 levels were measured using human IL-10 Assay Kits (Cisbio) using HTRF format. The signals were transformed to percentage of remaining activity by using the high control (HC, median of signal from wells containing cells treated with DMSO) and low control (LC, median of signal from wells with no cells). IC50 values (nM) were determined using 4-parametric curve-fitting and Hill coefficient were obtained using Graph Pad Prism (Graph Pad software, Inc, USA) with non-linear regression analysis.

Test [3] relates to IL10 secretion, OCI-LY10 cells. Put plainly: Human IL10 secretion assay, Assay 2 (Meso Scale Discovery). The test is classed as cell-based. The conditions noted are these: 24 h incubation, MSD, read-out: IL-10 Secretion IC50 [nM] Assay 2. How it is done:
as §1
Assay 2: OCI-LY10 cells were seeded in IMEM supplemented with 20% fetal bovine serum at 4.8×10^5 cells per 160 μL per well in 96-well V-bottom cell culture plates (coming, 3894), treated with 120 nL of 3-fold serial compound dilutions, starting at 4 mM. The final vehicle concentration was 0.075% DMSO in all wells. After a 24 h incubation, human IL-10 pre-coated plates (Meso Scale Discovery) were washed 3 times with PBST, and 50 μL culture medium was aspirated into the MSD plate and incubated at 4° C. overnight. The supernatant was then discarded and the wells were washed 3 times with PBST. SULFO-TAG Anti-human IL-10 Antibody (50×) was diluted 50 fold according to the Meso Scale Protocol, then 25 μL of SULFO-TAG Anti-human IL-10 Antibody (1×) was added. After 2 h of incubation at RT, the supernatant was discarded and the well was washed 3 times with PBST. 2× read buffer was added and the signal was read on an MSD Sector S600. The effect of a particular compound on IL10 secretion is shown relative to the effect of DMSO; set as 100%. IC50 values (nM) were determined using 4-parametric curve-fitting.

Where a name gives a salt, the structure may show the parent alone.

full-length MALT1 protein His-MALT1(1-824), sequence (Q9UDY8 whole entry): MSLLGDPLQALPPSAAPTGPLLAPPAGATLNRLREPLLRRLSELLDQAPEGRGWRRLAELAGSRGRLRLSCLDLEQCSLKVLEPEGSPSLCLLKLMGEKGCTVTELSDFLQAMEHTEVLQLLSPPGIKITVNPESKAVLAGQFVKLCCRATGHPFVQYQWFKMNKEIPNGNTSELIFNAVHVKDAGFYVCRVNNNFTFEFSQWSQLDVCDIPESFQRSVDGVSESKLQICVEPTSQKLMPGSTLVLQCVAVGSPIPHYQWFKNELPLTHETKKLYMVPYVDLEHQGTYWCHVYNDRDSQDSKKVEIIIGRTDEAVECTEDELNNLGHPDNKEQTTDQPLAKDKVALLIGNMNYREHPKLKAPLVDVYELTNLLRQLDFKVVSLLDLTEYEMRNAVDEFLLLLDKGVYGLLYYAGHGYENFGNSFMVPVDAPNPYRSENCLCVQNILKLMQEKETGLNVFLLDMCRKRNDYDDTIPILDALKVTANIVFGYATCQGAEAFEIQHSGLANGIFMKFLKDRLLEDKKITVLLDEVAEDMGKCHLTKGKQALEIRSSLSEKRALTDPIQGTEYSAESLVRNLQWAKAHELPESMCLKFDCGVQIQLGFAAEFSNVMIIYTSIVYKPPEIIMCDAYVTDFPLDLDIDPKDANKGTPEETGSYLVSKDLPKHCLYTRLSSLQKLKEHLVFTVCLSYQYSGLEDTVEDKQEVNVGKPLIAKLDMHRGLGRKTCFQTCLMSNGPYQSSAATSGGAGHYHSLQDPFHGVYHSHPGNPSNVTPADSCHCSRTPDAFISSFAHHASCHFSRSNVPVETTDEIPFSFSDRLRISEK

In the case of `C[C@@]1(C(F)(F)F)CN(C(=O)Nc2cnn(C(F)F)c2)c2cnc3cc(Cl)nn3c21` [compound 64, (R)-2-chloro-N-(1-(difluoromethyl)-1H-pyrazol-4-yl)-8-methyl-8-(trifluoromethyl)-7,8-dihydro-6H-pyrazolo[1,5-a]pyrrolo[2,3-e]pyrimidine-6-carboxamide], the IC50 in test [1] and in test [2] was 10 to 100 nM in each case.

On to `C[C@@]1(C(F)(F)F)CN(C(=O)Nc2cc(C#N)nc(C(F)(F)F)c2)c2cnc3cc(Cl)nn3c21` [compound 61, (R)-2-chloro-N-(2-cyano-6-(trifluoromethyl)pyridin-4-yl)-8-methyl-8-(trifluoromethyl)-7,8-dihydro-6H-pyrazolo[1,5-a]pyrrolo[2,3-e]pyrimidine-6-carboxamide], for which the figures for the IC50 in test [1] and in test [2] were 10 to 100 nM and 100 to 1000 nM, respectively.

Turning to `C[C@@]1(C(F)(F)F)CN(C(=O)Nc2cnc(-n3nccn3)c(C#N)c2)c2cnc3cc(F)nn3c21` [compound 91, (R)-N-(5-cyano-6-(2H-1,2,3-triazol-2-yl)pyridin-3-yl)-2-fluoro-8-methyl-8-(trifluoromethyl)-7,8-dihydro-6H-pyrazolo[1,5-a]pyrrolo[2,3-e]pyrimidine-6-carboxamide], the IC50 in test [3] lay in the range of 10 to 100 nM.

With `O=C(Nc1cnc(-n2nccn2)c(Cl)c1)N1CC(O)(C(F)(F)F)c2c1cnc1cc(Cl)nn21` (centres unmarked) [compound 201, 2-chloro-N-(5-chloro-6-(2H-1,2,3-triazol-2-yl)pyridin-3-yl)-8-hydroxy-8-(trifluoromethyl)-7,8-dihydro-6H-pyrazolo[1,5-a]pyrrolo[2,3-e]pyrimidine-6-carboxamide], the IC50 in test [3] and in test [2] was 10 to 100 nM throughout.

Turning to `CC1(C(F)(F)F)CN(C(=O)Nc2cnc(-n3nccn3)c(Cl)c2)c2cnc3cc(C(F)F)nn3c21` (centres unmarked) [Compound 62], the concentration for half-maximal inhibition (IC50) in test [1] and in test [2] was 10 to 100 nM throughout.

With `C[C@@]1(C(F)(F)F)CN(C(=O)Nc2cnc(-n3nccn3)c(C(F)F)c2)c2cnc3cc(Cl)nn3c21` [compound 35, (R)-2-chloro-N-(5-(difluoromethyl)-6-(2H-1,2,3-triazol-2-yl)pyridin-3-yl)-8-methyl-8-(trifluoromethyl)-7,8-dihydro-6H-pyrazolo[1,5-a]pyrrolo[2,3-e]pyrimidine-6-carboxamide], the IC50 in test [3] and in test [2] was 10 to 100 nM throughout.

Regarding `C[C@H](O)COc1ncc(NC(=O)N2C[C@@](C)(C(F)(F)F)c3c2cnc2cc(Cl)nn32)cc1Cl` [compound 73, (R)-2-chloro-N-(5-chloro-6-((S)-2-hydroxypropoxy)pyridin-3-yl)-8-methyl-8-(trifluoromethyl)-7,8-dihydro-6H-pyrazolo[1,5-a]pyrrolo[2,3-e]pyrimidine-6-carboxamide], the IC50 in test [1] and in test [2] was 10 to 100 nM in each case.

Consider `CC(O)c1cnn(-c2ncc(NC(=O)N3C[C@@](C)(C(F)(F)F)c4c3cnc3cc(F)nn43)cc2C(F)F)n1` (stereo partly drawn) [compound 191, (8R)-N-(5-(difluoromethyl)-6-(4-(1-hydroxyethyl)-2H-1,2,3-triazol-2-yl)pyridin-3-yl)-2-fluoro-8-methyl-8-(trifluoromethyl)-7,8-dihydro-6H-pyrazolo[1,5-a]pyrrolo[2,3-e]pyrimidine-6-carboxamide], for which the half-inhibitory concentration (IC50) in test [3] and in test [2] was 10 to 100 nM in each case.

On to `C[C@@]1(C(F)(F)F)CN(C(=O)Nc2cnc(-n3nccn3)c(C(F)(F)F)c2)c2cnc3cc(Cl)nn3c21` [compound 40, (R)-N-(6-(2H-1,2,3-triazol-2-yl)-5-(trifluoromethyl)pyridin-3-yl)-2-chloro-8-methyl-8-(trifluoromethyl)-7,8-dihydro-6H-pyrazolo[1,5-a]pyrrolo[2,3-e]pyrimidine-6-carboxamide], for which the IC50 in test [3] and in test [2] was 10 to 100 nM throughout.

Turning to `COc1cnn(-c2ncc(NC(=O)N3C[C@@](C)(C(F)(F)F)c4c3cnc3cc(Cl)nn43)cc2Cl)n1` [compound 92, (R)-2-chloro-N-(5-chloro-6(4-methoxy-2H-1,2,3-triazol-2-yl)pyridin-3-yl)-8-methyl-8-(trifluoromethyl)-7,8-dihydro-6H-pyrazolo[1,5-a]pyrrolo[2,3-e]pyrimidine-6-carboxamide], in test [3], the IC50 was 10 to 100 nM.

As for `Cc1cc(NC(=O)N2C[C@@](C)(C(F)(F)F)c3c2cnc2cc(F)nn32)cnc1-n1nccn1` [compound 125, (R)-2-fluoro-8-methyl-N-(5-methyl-6-(2H-1,2,3-triazol-2-yl)pyridin-3-yl)-8-(trifluoromethyl)-7,8-dihydro-6H-pyrazolo[1,5-a]pyrrolo[2,3-e]pyrimidine-6-carboxamide], the IC50 in test [3] and in test [2] was 10 to 100 nM each time.

In the case of `CN(C(=O)c1ncc(NC(=O)N2C[C@@](C)(C(F)(F)F)c3c2cnc2cc(Cl)nn32)cc1C(F)F)C1CC1` [compound 151, (R)-2-chloro-N-(6-(cyclopropyl(methyl)carbamoyl)-5-(difluoromethyl)pyridin-3-yl)-8-methyl-8-(trifluoromethyl)-7,8-dihydro-6H-pyrazolo[1,5-a]pyrrolo[2,3-e]pyrimidine-6-carboxamide], the IC50 in test [3] and in test [2] was 10 to 100 nM in each case.

As to `C[C@@]1(C(F)(F)F)CN(C(=O)Nc2cnc(C(O)C3CC3)c(Cl)c2)c2cnc3cc(Cl)nn3c21` (stereo partly drawn) [compound 72, (8R)-2-chloro-N-(5-chloro-6-(cyclopropyl(hydroxy)methyl)pyridin-3-yl)-8-methyl-8-(trifluoromethyl)-7,8-dihydro-6H-pyrazolo[1,5-a]pyrrolo[2,3-e]pyrimidine-6-carboxamide], the IC50 was 10 to 100 nM in test [1] and 100 to 1000 nM in test [2].

On to `C[C@@]1(C(F)(F)F)CN(C(=O)Nc2cnc(-n3nccn3)c(Cl)c2)c2cnc3cc(F)nn3c21` [compound 39, (R)-N-(5-chloro-6-(2H-1,2,3-triazol-2-yl)pyridin-3-yl)-2-fluoro-8-methyl-8-(trifluoromethyl)-7,8-dihydro-6H-pyrazolo[1,5-a]pyrrolo[2,3-e]pyrimidine-6-carboxamide], for which the IC50 in test [3] and in test [2] was 10 to 100 nM each time.

Turning to `C[C@H]1COC(=O)N1c1cc(NC(=O)N2C[C@@](C)(C(F)(F)F)c3c2cnc2cc(Cl)nn32)cc(C(F)(F)F)n1` [compound 84, (R)-2-chloro-8-methyl-N-(2-((S)-4-methyl-2-oxooxazolidin-3-yl)-6-(trifluoromethyl)pyridine-4-yl)-8-(trifluoromethyl)-7,8-dihydro-6H-pyrazolo[1,5-a]pyrrolo[2,3-e]pyrimidine-6-carboxamide], the results for the IC50 in test [1] and in test [2] were 10 to 100 nM and 100 to 1000 nM, respectively.

Regarding `COc1c(C)cc(NC(=O)N2C[C@@](C)(C(F)(F)F)c3c2cnc2cc(Cl)nn32)nc1O[C@H]1CCNC1` [compound 82, (R)-2-chloro-N-(5-methoxy-4-methyl-6-(((S)-pyrrolidin-3-yl)oxy)pyridin-2-yl)-8-methyl-8-(trifluoromethyl)-7,8-dihydro-6H-pyrazolo[1,5-a]pyrrolo[2,3-e]pyrimidine-6-carboxamide formate], the IC50 in test [1] is 10 to 100 nM; in test [2], 100 to 1000 nM.

Turning to `C[C@@]1(C(F)(F)F)CN(C(=O)Nc2cnnc(C(F)(F)F)c2)c2cnc3cc(Cl)nn3c21` [compound 59, (R)-11-chloro-3-methyl-3-(trifluoromethyl)-N-[6-(trifluoromethyl)pyridazin-4-yl]-1,5,8,12-tetrazatricyclo[7.3.0.02,6]dodeca-2(6),7,9,11-tetraene-5-carboxamide], the IC50 in test [1] and in test [2] was 10 to 100 nM in each case.

The IC50 is the concentration that inhibits the measured activity by half.
